Columns and labels:
Type in all cases: cell-based
F508del-CFTR [1] = target: T1, F508del-CFTR (Homo sapiens, UniProt P13569, DEL508-508); test: Short-circuit current recordings on human bronchial epithelial cells (F508del/F508del); set-up: Human bronchial epithelial (HBE) cells obtained from CF patients (F508del/F508del genotype); endogenous in cells; host or cells: primary human bronchial epithelial cells from CF patients, F508del/F508del; details: HBE cells from CF patients (F508del/F508del), 24 hrs treatment; table 3
T1 sequence (P13569 with tags, fused parts or gaps DEL508-508): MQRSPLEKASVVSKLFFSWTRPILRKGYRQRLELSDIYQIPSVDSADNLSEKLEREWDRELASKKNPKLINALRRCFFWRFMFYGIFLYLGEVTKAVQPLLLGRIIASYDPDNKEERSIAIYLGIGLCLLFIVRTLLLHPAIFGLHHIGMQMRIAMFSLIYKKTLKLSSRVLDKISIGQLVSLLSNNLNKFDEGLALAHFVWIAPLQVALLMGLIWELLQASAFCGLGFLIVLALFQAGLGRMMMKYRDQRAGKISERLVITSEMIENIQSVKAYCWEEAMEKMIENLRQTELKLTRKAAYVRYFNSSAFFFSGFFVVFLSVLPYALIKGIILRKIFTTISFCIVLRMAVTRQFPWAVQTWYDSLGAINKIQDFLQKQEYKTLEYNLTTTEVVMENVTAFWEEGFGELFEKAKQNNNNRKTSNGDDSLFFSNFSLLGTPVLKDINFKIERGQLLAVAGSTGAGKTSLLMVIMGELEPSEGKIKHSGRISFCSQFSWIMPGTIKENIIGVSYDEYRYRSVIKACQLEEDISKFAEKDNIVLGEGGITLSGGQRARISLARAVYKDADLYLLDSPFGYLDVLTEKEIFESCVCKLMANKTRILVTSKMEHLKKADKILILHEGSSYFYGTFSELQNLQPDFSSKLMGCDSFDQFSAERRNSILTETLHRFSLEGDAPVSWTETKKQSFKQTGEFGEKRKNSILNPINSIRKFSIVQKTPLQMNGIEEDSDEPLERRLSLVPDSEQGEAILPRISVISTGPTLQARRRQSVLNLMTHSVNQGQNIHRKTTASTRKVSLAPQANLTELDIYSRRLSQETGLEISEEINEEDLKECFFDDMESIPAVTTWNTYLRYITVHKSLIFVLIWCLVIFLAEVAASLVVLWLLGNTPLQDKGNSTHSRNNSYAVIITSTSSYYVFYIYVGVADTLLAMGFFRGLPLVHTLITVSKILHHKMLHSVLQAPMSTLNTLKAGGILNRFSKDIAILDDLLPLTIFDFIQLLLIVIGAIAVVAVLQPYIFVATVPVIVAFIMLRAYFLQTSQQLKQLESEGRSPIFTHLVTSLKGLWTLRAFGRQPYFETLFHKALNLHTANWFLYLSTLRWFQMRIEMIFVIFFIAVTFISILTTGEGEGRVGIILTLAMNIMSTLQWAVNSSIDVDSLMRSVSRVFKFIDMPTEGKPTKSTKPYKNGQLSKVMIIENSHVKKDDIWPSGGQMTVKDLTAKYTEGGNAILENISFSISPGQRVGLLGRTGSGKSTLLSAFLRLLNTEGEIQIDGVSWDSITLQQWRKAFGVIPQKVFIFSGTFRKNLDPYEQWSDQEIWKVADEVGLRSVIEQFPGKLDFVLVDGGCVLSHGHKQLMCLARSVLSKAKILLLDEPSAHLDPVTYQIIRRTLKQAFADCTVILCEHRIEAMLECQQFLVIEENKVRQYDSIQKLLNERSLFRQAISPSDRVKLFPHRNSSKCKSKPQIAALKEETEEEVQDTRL
Protocol: Short-Circuit Current Recordings on Human Bronchial Epithelial Cells
Human bronchial epithelial (HBE) cells obtained from CF patients (F508del/F508del genotype) were plated on Snapwell inserts (Code 3801, Corning Life Sciences) at a density of 500,000 cells per insert. Cells were cultured for two weeks in a differentiating medium whose compositions has been previously described (Scudieri et al., J Physiol 590:6141-6155, 2012). For the first week, the medium was kept on both apical and basolateral sides of inserts (submerged condition). For the second week, the apical medium was removed (air-liquid condition, ALC). To test the activity of correctors, cells were treated for 24 hrs with compounds dissolved in the basolateral medium. After treatment, Snapwell inserts carrying differentiated bronchial epithelia were mounted in a vertical chamber resembling an Ussing system with internal fluid circulation. Both apical and basolateral hemichambers were filled with 5 mL of a Krebs bicarbonate solution containing (in mM): 126 NaCl, 0.38 KH2PO4, 2.13 K2HPO4, 1 MgSO4, 1 CaCl2), 24 NaHCO3, and 10 glucose. Both sides were continuously bubbled with a gas mixture containing 5% CO2-95% air and the temperature of the solution was kept at 37° C. The transepithelial voltage was short-circuited with a voltage-clamp (DVC-1000, World Precision Instruments) connected to the apical and basolateral chambers via Ag/AgCl electrodes and agar bridges (1 M KCl in 1% agar). The offset between voltage electrodes and the fluid resistance were canceled before experiments. The short-circuit current was recorded with a PowerLab 4/25 (ADInstruments) analogical to digital converter connected to a Macintosh computer. […] The difference between the current measured with CPT-cAMP plus potentiator and the current remaining after CFTRinh-172 treatment (ΔICFTR) was taken as the parameter reflecting F508del-CFTR expression in the apical membrane.
Activities of selected compounds on HBE cells (expressed as ΔICFTR) are illustrated in table 3 wherein +: ΔICFTR<2.0 μA; ++: 2.0 μA<ΔICFTR<3.0 μA; +++: ΔICFTR>3.0 μA.

F508del-CFTR [2] = target: T1, F508del-CFTR; test: Transepithelial electrical conductance (TEEC) in FRT cells expressing F508del-CFTR; set-up: expressed in transfected cells; host or cells: FRT cells; details: compounds tested at 5.0 μM, 24 hrs, table 2
Protocol: Transepithelial Electrical Conductance (TEEC)
FRT cells expressing F508del-CFTR were plated on HTS Transwell-24 well permeable supports (Code 3379, Corning Life Sciences) at a density of 200,000 cells/well. After six days, cells were incubated for 24 hrs with test correctors, vehicle, or VX-809. Compounds were dissolved in both basolateral (800 μL) and apical (300 μL) culture medium. After treatment, the culture medium was removed and replaced on both sides with a saline solution containing (in mM): 130 NaCl, 2.7 KCl, 1.5 KH2PO4, 1 CaCl2), 0.5 MgCl2, 10 glucose, 10 Na-Hepes (pH 7.4). The basolateral and apical side received 800 μL and […], respectively. The 24-well tray with cells was placed on a block heater (SBH 130D, Stuart) to keep the temperature at 37° C. during the entire experiment. After 10 min, the basal transepithelial electrical resistance (TEER) across each layer of FRT cells was measured with a STX100C electrode pair connected to an EVOM2 voltohmeter (World Precision Instruments). To stimulate F508del-CFTR, each well received (apical side) 50 μL of saline solution containing 60 μM forskolin and 150 μM genistein (final concentrations: 20 μM forskolin, 50 μM genistein). Forskolin was also pipetted in the basolateral medium to obtain the 20 μM concentration. After 10 min TEER was measured again in each well. To block F508del-CFTR function, the inhibitor PPQ-102 was used at the final concentration of 30 μM. To achieve the desired concentration, 75 μL of the apical solution in each well was replaced with an equal volume of saline solution containing 20 μM forskolin, 50 μM genistein, and 60 μM PPQ-102. After further 10 min, the transepithelial electrical resistance was measured. All values of TEER were converted to transepithelial electrical conductance (TEEC) using the formula TEEC=1/TEER. The parameter to indicate activity of F508del-CFTR in each well (ATEEC) was calculated from the difference in TEEC measured after maximal stimulation of F508del-CFTR with forskolin and genistein and after block with PPQ-102.
Corrector activities obtained on selected compounds tested at 5.0 μM (expressed as ΔTEEC values) are illustrated in table 2, wherein +: ΔTEEC<2000 μS; ++: 2000 μS<ΔTEEC<3000 μS; […]: ΔTEEC>3000 μS.

mutant CFTR = target: T2, mutant CFTR (Homo sapiens, UniProt P13569, DEL508-508); test: Fluorescence (HS-YFP) assay for CFTR activity, corrector assay; details: CFBE41o- and FRT cells with stable expression of mutant CFTR, 24 h compound treatment
T2 construct: expressed in transfected cells
T2 sequence (P13569 with tags, fused parts or gaps DEL508-508): as above
How it was run: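 Corrector activity: 24 h compound treatment of HS-YFP/mutant-CFTR CFBE41o- or FRT cells, followed by 30 min forskolin 20 μM + genistein 50 μM at 37° C. Iodide influx (100 mM final) was tracked as fluorescence quenching, with dF/dt extrapolated by exponential fitting; EC50 values derived.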

Row | SMILES | activity on HBE cells (ΔICFTR) (F508del-CFTR [1]) | Corrector activity (ΔTEEC) (F508del-CFTR [2]) | EC50 (mutant CFTR)
1 | Cc1nn(-c2cccc(C(=O)N(C)c3ccc4c(c3)OC(F)(F)O4)c2)c(C)c1Cl [compound 009, 3-(4-Chloro-3,5-dimethyl-pyrazol-1-yl)-N-(2,2-difluoro-1,3-benzodioxol-5-yl)-N-methyl-benzamide] | ++ (2.0 μA<ΔICFTR<3.0 μA) | + (ΔTEEC<2000 μS) | 1000 to 2000 nM
2 | Cc1nn(-c2cccc(C(=O)N(C)c3ccc4c(c3)OCO4)c2)c(C(=O)OC(C)(C)C)c1Cl [compound 089, Tert-butyl 2-[3-[1,3-benzodioxol-5-yl(methyl)carbamoyl]phenyl]-4-chloro-5-methyl-pyrazole-3-carboxylate] | +++ (ΔICFTR>3.0 μA) | + (ΔTEEC<2000 μS) | < 1000 nM
3 | Cc1c(Cl)c(C(F)(F)F)nn1-c1cccc(C(=O)N(C)c2ccc3c(c2)OCO3)c1 [compound 090, N-(1,3-Benzodioxol-5-yl)-3-[4-chloro-5-methyl-3-(trifluoromethyl)pyrazol-1-yl]-N-methyl-benzamide] | +++ (ΔICFTR>3.0 μA) | ++ (2000 μS<ΔTEEC<3000 μS) | < 1000 nM
4 | CC(C)Cc1cc(C(F)(F)F)nn1-c1cccc(C(=O)N(C)c2ccc3c(c2)OCO3)c1 [compound 100, N-(1,3-Benzodioxol-5-yl)-3-[5-isobutyl-3-(trifluoromethyl)pyrazol-1-yl]-N-methyl-benzamide] | + (ΔICFTR<2.0 μA) | + (ΔTEEC<2000 μS) | < 1000 nM
5 | Cc1nc2ccc(N(C)C(=O)c3cccc(-n4nc(C(F)(F)F)c(Cl)c4C)c3)cc2o1 [compound 108, 3-[4-Chloro-5-methyl-3-(trifluoromethyl)pyrazol-1-yl]-N-methyl-N-(2-methyl-1,3-benzoxazol-6-yl)benzamide] | + (ΔICFTR<2.0 μA) | ++ (2000 μS<ΔTEEC<3000 μS) | < 1000 nM
6 | CN(C(=O)c1cccc(-n2nc(C(F)(F)F)cc2-c2ccccc2)c1)c1ccc2c(c1)OCO2 [compound 125, N-(1,3-Benzodioxol-5-yl)-N-methyl-3-[5-phenyl-3-(trifluoromethyl)pyrazol-1-yl]benzamide] | + (ΔICFTR<2.0 μA) | + (ΔTEEC<2000 μS) | < 1000 nM

Now from value to compound:

Row | activity on HBE cells (ΔICFTR) (F508del-CFTR [1]) | Corrector activity (ΔTEEC) (F508del-CFTR [2]) | EC50 (mutant CFTR) | SMILES
7 | + (ΔICFTR<2.0 μA) | + (ΔTEEC<2000 μS) | < 1000 nM | CCOC(=O)c1c(Cl)c(C)nn1-c1cccc(C(=O)N(C)c2ccc3c(c2)OCO3)c1 [compound 075, Ethyl 2-[3-[1,3-benzodioxol-5-yl(methyl)carbamoyl]phenyl]-4-chloro-5-methyl-pyrazole-3-carboxylate]
8 | ++ (2.0 μA<ΔICFTR<3.0 μA) | ++ (2000 μS<ΔTEEC<3000 μS) | < 1000 nM | Cc1nc2cc(Cl)c(N(C)C(=O)c3cccc(-n4nc(C)c(Cl)c4C)c3)cc2o1 [compound 080, 3-(4-Chloro-3,5-dimethyl-pyrazol-1-yl)-N-(5-chloro-2-methyl-1,3-benzoxazol-6-yl)-N-methyl-benzamide]
9 | +++ (ΔICFTR>3.0 μA) | ++ (2000 μS<ΔTEEC<3000 μS) | < 1000 nM | Cc1c(Br)c(C(F)(F)F)nn1-c1cccc(C(=O)N(C)c2ccc3c(c2)OCO3)c1 [compound 098, N-(1,3-Benzodioxol-5-yl)-3-[4-bromo-5-methyl-3-(trifluoromethyl)pyrazol-1-yl]-N-methyl-benzamide]
10 | ++ (2.0 μA<ΔICFTR<3.0 μA) | ++ (2000 μS<ΔTEEC<3000 μS) | < 1000 nM | Cc1nn(-c2cccc(C(=O)N(C)c3ccc4c(c3)OCO4)c2)c(C)c1C(F)(F)F [compound 099, N-(1,3-Benzodioxol-5-yl)-3-[3,5-dimethyl-4-(trifluoromethyl)pyrazol-1-yl]-N-methyl-benzamide]
11 | +++ (ΔICFTR>3.0 μA) | ++ (2000 μS<ΔTEEC<3000 μS) | < 1000 nM | CCOC(=O)c1ccc(OCc2c(Cl)c(C)nn2-c2cccc(C(=O)N(C)c3ccc4c(c3)OCO4)c2)cc1 [compound 141, Ethyl 4-[[2-[3-[1,3-benzodioxol-5-yl(methyl)carbamoyl]phenyl]-4-chloro-5-methyl-pyrazol-3-yl]methoxy]benzoate]

Reference: patent publication US12492193B2, “Pyrazole derivatives for the treatment of cystic fibrosis” (Fondazione Istituto Italiano Di Tecnologia, priority 2017, dated 2025)
